# According to PubChem BioAssay (NCI):
#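 In this assay, cells in 96-well plates receive the compound at five concentrations for 48 hours. Endpoints are linearly interpolated between the surrounding concentrations. TGI marks complete inhibition of growth.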
# Key:
# Experiment in all cases: inhibition of tumour cell growth, NCI panel, 48 h
# [1] = tested on: PC-3 prostate
# [2] = tested on: MOLT-4 leukemia
# [3] = tested on: HCC-2998 colon
# [4] = tested on: T-47D breast
# [5] = tested on: HCT-15 colon
# [6] = tested on: CCRF-CEM leukemia
# [7] = tested on: HT29 colon
# [8] = tested on: DU-145 prostate
# [9] = tested on: RXF 393 renal
# [10] = tested on: 786-0 renal
# [11] = tested on: NCI/ADR-RES ovarian
# [12] = tested on: K-562 leukemia
# [13] = tested on: SR leukemia
# [14] = tested on: HOP-92 NSCLC
# [15] = tested on: SK-OV-3 ovarian
# [16] = tested on: KM12 colon
# [17] = tested on: SNB-19 CNS
# [18] = tested on: NCI-H226 lung
# [19] = tested on: UACC-257 melanoma
# [20] = tested on: HCT-116 colon
# [21] = tested on: SF-268 CNS
# [22] = tested on: RPMI-8226 leukemia
# [23] = tested on: UACC-62 melanoma
# [24] = tested on: SK-MEL-5 melanoma
# [25] = tested on: U251 CNS
# [26] = tested on: NCI-H460 lung
# [27] = tested on: A549 NSCLC
# [28] = tested on: OVCAR-5 ovarian
# [29] = tested on: HL-60(TB) leukemia
# [30] = tested on: UO-31 renal
# [31] = tested on: COLO 205 colon
# [32] = tested on: HS 578T breast
# [33] = tested on: CAKI-1 renal
# [34] = tested on: SN12C renal
# [35] = tested on: MDA-MB-231 breast
# [36] = tested on: SK-MEL-28 melanoma
# [37] = tested on: MCF7 breast
# [38] = tested on: OVCAR-8 ovarian
# [39] = tested on: SF-295 CNS
# [40] = tested on: M14 melanoma
# [41] = tested on: LOX IMVI melanoma
# [42] = tested on: SNB-75 CNS
# [43] = tested on: HOP-62 NSCLC
# [44] = tested on: MDA-MB-435
# [45] = tested on: EKVX NSCLC
# [46] = tested on: IGROV1 ovarian
# [47] = tested on: TK-10 renal
# [48] = tested on: NCI-H23 lung
# [49] = tested on: SF-539 CNS
# [50] = tested on: BT-549 breast
# [51] = tested on: OVCAR-4 ovarian
# [52] = tested on: A498 renal
# [53] = tested on: MDA-N
# [54] = tested on: SW-620 colon
# [55] = tested on: SK-MEL-2 melanoma
# [56] = tested on: ACHN renal
# [57] = tested on: MALME-3M melanoma
# [58] = tested on: OVCAR-3 ovarian
# [59] = tested on: NCI-H522 lung
smiles,measurement,setting,value
FC(F)(F)c1ccccc1C1SCC2=Nc3ccccc3CN21 (stereo not given),TGI,[1],27.9 µM
same,TGI,[2],> 100 µM
same,TGI,[3],27.6 µM
same,TGI,[4],38.4 µM
same,TGI,[5],27.1 µM
same,TGI,[6],95 µM
same,TGI,[7],30 µM
same,TGI,[8],25.4 µM
same,TGI,[9],22 µM
same,TGI,[10],24.2 µM
same,TGI,[11],35.7 µM
same,TGI,[12],> 100 µM
same,TGI,[13],> 100 µM
same,TGI,[14],60.9 µM
same,TGI,[15],42 µM
same,TGI,[16],25.5 µM
same,TGI,[17],26.3 µM
same,TGI,[18],26.7 µM
same,TGI,[19],36.6 µM
same,TGI,[20],23.1 µM
same,TGI,[21],29.2 µM
same,TGI,[22],> 100 µM
same,TGI,[23],26.1 µM
same,TGI,[24],27.9 µM
same,TGI,[25],> 100 µM
same,TGI,[26],31.8 µM
same,TGI,[27],27.6 µM
same,TGI,[28],26.6 µM
same,TGI,[29],66.2 µM
same,TGI,[30],24.1 µM
same,TGI,[31],25 µM
same,TGI,[32],27.4 µM
same,TGI,[33],> 100 µM
same,TGI,[34],> 100 µM
same,TGI,[35],> 100 µM
same,TGI,[36],58.2 µM
same,TGI,[37],26.5 µM
same,TGI,[38],30.5 µM
same,TGI,[39],26.2 µM
same,TGI,[40],24.6 µM
same,TGI,[41],28.4 µM
same,TGI,[42],36.5 µM
same,TGI,[43],23.1 µM
same,TGI,[44],93.1 µM
same,TGI,[45],24.9 µM
same,TGI,[46],29.7 µM
same,TGI,[47],29.9 µM
same,TGI,[48],26.6 µM
same,TGI,[49],22.6 µM
same,TGI,[50],44.2 µM
same,TGI,[51],30.1 µM
same,TGI,[52],35.3 µM
same,TGI,[53],> 100 µM
same,TGI,[54],> 100 µM
CSc1ncnc2c1cnn2Cc1cn(COCCO)nn1,TGI,[1],> 100 µM
same,TGI,[55],> 100 µM
same,TGI,[3],> 100 µM
same,TGI,[4],> 100 µM
same,TGI,[5],> 100 µM
same,TGI,[6],> 100 µM
same,TGI,[7],55.4 µM
same,TGI,[8],> 100 µM
same,TGI,[9],> 100 µM
same,TGI,[10],> 100 µM
same,TGI,[11],> 100 µM
same,TGI,[12],> 100 µM
same,TGI,[13],> 100 µM
same,TGI,[14],> 100 µM
same,TGI,[15],> 100 µM
same,TGI,[16],> 100 µM
same,TGI,[56],> 100 µM
same,TGI,[17],> 100 µM
same,TGI,[18],> 100 µM
same,TGI,[19],> 100 µM
same,TGI,[20],> 100 µM
same,TGI,[21],> 100 µM
same,TGI,[22],> 100 µM
same,TGI,[23],> 100 µM
same,TGI,[24],> 100 µM
same,TGI,[25],> 100 µM
same,TGI,[26],> 100 µM
same,TGI,[27],> 100 µM
same,TGI,[28],> 100 µM
same,TGI,[29],> 100 µM
same,TGI,[30],> 100 µM
same,TGI,[31],> 100 µM
same,TGI,[32],> 100 µM
same,TGI,[57],> 100 µM
same,TGI,[34],> 100 µM
same,TGI,[35],> 100 µM
same,TGI,[36],> 100 µM
same,TGI,[37],> 100 µM
same,TGI,[58],59.1 µM
same,TGI,[40],> 100 µM
same,TGI,[41],> 100 µM
same,TGI,[43],> 100 µM
same,TGI,[44],42.3 µM
same,TGI,[46],> 100 µM
same,TGI,[47],> 100 µM
same,TGI,[48],> 100 µM
same,TGI,[49],> 100 µM
same,TGI,[50],> 100 µM
same,TGI,[51],> 100 µM
same,TGI,[52],> 100 µM
same,TGI,[53],39.6 µM
same,TGI,[54],> 100 µM
COc1ccc(-n2c(CCC(=O)O)nc3c2C(=O)c2ccccc2C3=O)cc1,TGI,[1],> 100 µM
same,TGI,[55],> 100 µM
same,TGI,[2],> 100 µM
same,TGI,[3],> 100 µM
same,TGI,[4],> 100 µM
same,TGI,[59],> 100 µM
same,TGI,[5],> 100 µM
same,TGI,[6],> 100 µM
same,TGI,[7],> 100 µM
same,TGI,[8],> 100 µM
same,TGI,[9],> 100 µM
same,TGI,[10],> 100 µM
same,TGI,[11],> 100 µM
same,TGI,[12],> 100 µM
same,TGI,[13],> 100 µM
same,TGI,[15],> 100 µM
same,TGI,[16],> 100 µM
same,TGI,[56],> 100 µM
same,TGI,[17],> 100 µM
same,TGI,[18],> 100 µM
same,TGI,[19],> 100 µM
same,TGI,[20],> 100 µM
same,TGI,[21],> 100 µM
same,TGI,[22],> 100 µM
same,TGI,[23],> 100 µM
same,TGI,[24],> 100 µM
same,TGI,[25],> 100 µM
same,TGI,[26],> 100 µM
same,TGI,[27],> 100 µM
same,TGI,[28],> 100 µM
same,TGI,[29],> 100 µM
same,TGI,[30],> 100 µM
same,TGI,[31],> 100 µM
same,TGI,[32],> 100 µM
same,TGI,[33],> 100 µM
same,TGI,[34],> 100 µM
same,TGI,[35],> 100 µM
same,TGI,[36],> 100 µM
same,TGI,[37],> 100 µM
same,TGI,[58],> 100 µM
same,TGI,[38],> 100 µM
same,TGI,[39],> 100 µM
same,TGI,[40],> 100 µM
same,TGI,[41],> 100 µM
same,TGI,[42],> 100 µM
same,TGI,[43],> 100 µM
same,TGI,[44],> 100 µM
same,TGI,[45],> 100 µM
same,TGI,[47],> 100 µM
same,TGI,[48],> 100 µM
same,TGI,[49],> 100 µM
same,TGI,[50],> 100 µM
same,TGI,[51],> 100 µM
same,TGI,[52],> 100 µM
same,TGI,[53],> 100 µM
same,TGI,[54],> 100 µM
Cc1cccc(C2ON=C(c3ccccc3)N2C23CC4CC(CC(C4)C2)C3)c1 (stereo not given),TGI,[1],> 10 µM
same,TGI,[55],> 10 µM
same,TGI,[2],> 10 µM
same,TGI,[3],> 10 µM
same,TGI,[4],> 10 µM
same,TGI,[59],> 10 µM
same,TGI,[5],> 10 µM
same,TGI,[6],> 10 µM
same,TGI,[7],> 10 µM
same,TGI,[8],> 10 µM
same,TGI,[9],> 10 µM
same,TGI,[10],> 10 µM
same,TGI,[11],> 10 µM
same,TGI,[12],> 10 µM
same,TGI,[13],> 10 µM
same,TGI,[14],> 10 µM
same,TGI,[15],> 10 µM
same,TGI,[16],> 10 µM
same,TGI,[56],> 10 µM
same,TGI,[17],> 10 µM
same,TGI,[18],> 10 µM
same,TGI,[19],> 10 µM
same,TGI,[20],> 10 µM
same,TGI,[21],> 10 µM
same,TGI,[22],> 10 µM
same,TGI,[23],> 10 µM
same,TGI,[24],> 10 µM
same,TGI,[25],> 10 µM
same,TGI,[26],> 10 µM
same,TGI,[27],> 10 µM
same,TGI,[28],> 10 µM
same,TGI,[29],> 10 µM
same,TGI,[31],> 10 µM
same,TGI,[32],> 10 µM
same,TGI,[33],> 10 µM
same,TGI,[57],> 10 µM
same,TGI,[34],> 10 µM
same,TGI,[35],> 10 µM
same,TGI,[36],> 10 µM
same,TGI,[37],> 10 µM
same,TGI,[58],> 10 µM
same,TGI,[38],> 10 µM
same,TGI,[39],> 10 µM
same,TGI,[40],> 10 µM
same,TGI,[41],> 10 µM
same,TGI,[42],> 10 µM
same,TGI,[43],> 10 µM
same,TGI,[44],> 10 µM
same,TGI,[45],> 10 µM
same,TGI,[46],> 10 µM
same,TGI,[47],> 10 µM
same,TGI,[48],> 10 µM
same,TGI,[49],> 10 µM
same,TGI,[50],> 10 µM
same,TGI,[51],> 10 µM
same,TGI,[52],> 10 µM
same,TGI,[53],> 10 µM
same,TGI,[54],> 10 µM
